# Results from patent US20140161915A1, “Solubilization of cucurminoid compounds and products thereof” (priority 2011, published 2014).
# Experiments:
# [1] = Stability of dissolved curcumin: hydrolysis at alkaline pH and precipitation over time; assay type: physicochemical; settings: pressure-dissolved (15 psi, 121° C.) solution
# Method: For solutions made at room temperature it is difficult to obtain a clear (i.e., solid-free) supernatant even from careful centrifuging. The samples are far more soluble in alkaline water (e.g., pH 7.6), but when placed in phosphate buffered saline (PBS) and serum-free media at modest alkaline pH (pH 7.2, at 37° C.) the curcuminoids are hydrolyzed substantially completely within 30 minutes.
# Even so, UV-Visible spectra and mass specta (from matrix assisted laser desorption […] time of flight mass spectrometry, MALDI-TOF-MS) confirmed that the dissolved curcumin was substantially unchanged by the heat treatment. Heat treatment also appears to increase the solubilization of BDMC but (curiously) not DMC.
# (§1) The autoclave cycle was 70 minutes, of which ˜40 minutes represent actual time under pressure.
# [2] = test system: anti-Ro60 autoantibodies / Ro60 autoantigen; assay: Inhibition of binding of anti-Ro60 autoantibodies to Ro60 autoantigen; parameters: species or system human; settings: heat-solubilized
# [3] = Curcumin dissolution in water (saturated), centrifuged supernatant read by UV-Vis at 405 nm; assay type: physicochemical
# Method: as §1
# That mixture was then combined with 47.5 mL of deionized water to make up a 50 mL solution.
# anti-spectrin / spectrin = assay: Inhibition of binding of commercial polyclonal anti-spectrin to spectrin; settings: heat-solubilized
# [4] = Ingestion of aqueous solubilized curcumin by four adult males, reported effects; assay type: in vivo, human
# Method: The study conditions were as follows.
# This subject's study was conducted in a completely blind manner: the subject was told nothing about the known or suspected properties but was merely asked to report their observations.
# [5] = Curcumin dissolution in water (saturated), centrifuged supernatant read by UV-Vis at 405 nm; assay type: physicochemical; remark: listed apart in the source
# DNA = assay: Binding or intercalation to DNA; settings: heat solubilized
# [6] = test system: 4-hydroxy-2-nonenal-mediated oxidative modification of a protein substrate; assay: Inhibition of 4-hydroxy-2-nonenal-mediated oxidative modification of a protein substrate; assay type: biochemical; settings: heat-solubilized
# [7] = cited from earlier work
# [8] = 0.1% Tween-20, 15 psi, 121° C., deionized water
# [9] = 0.5% Tween-20, 15 psi, 121° C., deionized water
# [10] = 2% Tween-20, 15 psi, 121° C., deionized water
# [11] = 15 psi, 121° C., deionized water, 5 mg/mL present
# [12] = 0.1% Tween-20, room pressure, 100° C. deionized water
# [13] = 2% Tween-20, room pressure, 100° C. deionized water
smiles,measurement,setting,value
"COc1cc(/C=C/C(=O)CC(=O)/C=C/c2ccc(O)c(OC)c2)ccc1O [curcumin, 1,7-bis[4-hydroxy-3-methoxyphenyl]-1,6-heptadiene-3,5-dione]",Precipitation or turbidity of the solution over time,[1],did not precipitate out or cause the solution to become cloudy or turbid
same,Reduction in pristine curcumin,[1]; alkaline pH for 72 hours,32%
same,Inhibition of binding of anti-Ro60 autoantibodies to Ro60 autoantigen,[2]; Sjögren's syndrome sera,up to 43%
same,Inhibition of binding of anti-Ro60 autoantibodies to Ro60 autoantigen,[2]; systemic lupus erythematosus (SLE) sera,up to 52%
same,Dissolution (Approximate) Mass/mL,[3]; [8],44.84 µg/mL
same,Dissolution (Approximate) Molarity,[3]; [8],0.12 mM
same,Dissolution (Approximate) Molarity,[3]; [9],0.75 mM
same,Dissolution (Approximate) Mass/mL,[3]; [10],1556 µg/mL
same,Dissolution (Approximate) Molarity,[3]; [10],4.2 mM
same,Increase over curcumin dissolved at ambient temperature,"[3]; 15 psi, 121° C., 5% ethanol in deionized water",~100 fold
same,Dissolved share of the original amount,"[3]; 15 psi, 121° C., 5% ethanol in deionized water, made up to 50 mL",about 12.9%
same,Dissolved share of the curcumin initially present,[3]; [11],5%
same,Solubilized share of starting curcumin,"[3]; autoclaved in water with 2% of a poly(alkyl ether), 50 mL starting solution",31%
same,Inhibition of binding of commercial polyclonal anti-spectrin to spectrin,anti-spectrin / spectrin,50%
same,Duration of relief from metatarsal arthritic inflammation,"[4]; Subject #3, about 100 kg, 20 mL of 350 micromolar sample (autoclave, 5% ethanol), ingested",about 48 hours
same,Effect on mood,"[4]; four adult males, 5-20 mL of 150-350 micromolar autoclaved aqueous curcumin, ingested",mood elevating effects
same,Onset of mood elevating effects,"[4]; four adult males, ingested autoclaved aqueous curcumin",almost instantaneously
same,Dissolution (Approximate) Mass/mL,[5]; [12],22.5 µg/mL
same,Dissolution (Approximate) Molarity,[5]; [12],0.061 mM
same,Dissolution (Approximate) Mass/mL,[5]; [9],278.1 µg/mL
same,Dissolution (Approximate) Mass/mL,"[5]; 0.5% Tween-20, room pressure, 100° C. deionized water",77.44 µg/mL
same,Dissolution (Approximate) Mass/mL,[5]; [13],443.52 µg/mL
same,Dissolution (Approximate) Molarity,[5]; [13],1.2 mM
same,Dissolution (Approximate) Molarity,[5]; [11],0.68 mM
same,Intercalation into or binding to DNA,DNA,does not intercalate into or otherwise bind to DNA
same,Inhibition of 4-hydroxy-2-nonenal-mediated oxidative modification of a protein substrate,[6],80%
same,Increase in solubility by heat treatment over unheated,[7]; Kurien et al. (2007): boiling deionized water,12 fold
same,Solubility of curcumin itself,"[7]; deionized water at room temperature, dissolved material is DMC and BDMC",insoluble
